# Columns and labels:
# Type in all cases: biochemical
# papain = molecular target: T1, papain (Carica papaya, UniProt P00784); assay: Inhibitory activity against papain activity (Bz-Arg-MCA fluorescent substrate); settings: 10 μg/ml papain, 15 min preincubation, 37° C., pH 7.4, 10 μM Bz-Arg-MCA; from FIG. 5
# T1 construct: purchased Sigma-Aldrich Japan
# Procedure: Thereafter, 10 μM Bz-Arg-MCA was added to the reaction solution, and changes in the fluorescence intensity caused by cleavage of Bz-Arg-MCA were observed over time using a fluorometer.
# Thereafter, 10 μM Bz-Arg-MCA was added to the reaction solution, and changes in the fluorescence intensity caused by cleavage of Bz-Arg-MCA were measured using a fluorometer, to investigate the inhibitory activity.
# M^pro of SARS-COV2 [1] = molecular target: T2, M^pro of SARS-COV2 (Severe acute respiratory syndrome coronavirus 2, UniProt P0DTD1); assay: Inhibitory activity against M^pro of SARS-COV2 (Ac-Abu-Tle-Leu-Gln-MCA fluorescent substrate), Example 4; settings: 2 μg/ml M^pro, 5 min preincubation
# Procedure: Thereafter, 10 μM Ac-Abu-Tle-Leu-Gln-MCA was added to the reaction solution, and changes in the fluorescence intensity caused by cleavage of Ac-Abu-Tle-Leu-Gln-MCA were measured using a fluorometer, to investigate the inhibitory activity (FIG. 8). In order to provide a control, changes in the fluorescence intensity were measured under the same conditions except that no inhibitory compound was added.
# Ac-Abu-Tle-Leu-Gln-MCA is degraded by M^pro, to produce a fluorescent substance as follows. The production of the fluorescent substance is suppressed by the action of an M^pro-inhibiting compound.
# Thereafter, 10 μM Ac-Abu-Tle-Leu-Gln-MCA was added to the reaction solution, and changes in the fluorescence intensity caused by cleavage of Ac-Abu-Tle-Leu-Gln-MCA were measured using a fluorometer to measure the fluorescence intensity, to determine an inhibition curve (FIG. 8).
# M^pro of SARS-COV2 [2] = molecular target: T2, M^pro of SARS-COV2; assay: Inhibitory activity against M^pro of SARS-COV2 at 1 μM test compound, Example 5; settings: 2 μg/ml M^pro, measured 1 minute after addition, FIG. 10
# Procedure: The M^pro was introduced into a plasmid having GST and a histidine tag (FIG. 6), and the resulting plasmid was used for transformation of the E. coli BL21 (DE3) strain. The E. coli BL21 (DE3) strain was cultured at 37° C. to allow expression of M^pro protein. The cell bodies were recovered, and M^pro protein was purified using a binding agent for the histidine tag. The GST and the histidine tag were removed by autodigestion of M^pro and human rhinovirus 3C protease (HRV), and undigested M^pro and HRV were removed using a binding agent for the histidine tag, to obtain a purified sample of M^pro protein. […]
# After dissolving 2 μg/ml M^pro and 1 μM test compound in 50 mM Tris-HCl (pH 7.4) kept at 37° C., preincubation was carried out for 5 minutes. Thereafter, 10 μM Ac-Abu-Tle-Leu-Gln-MCA was added to the reaction solution, and the fluorescence intensity resulting from cleavage of Ac-Abu-Tle-Leu-Gln-MCA was measured using a fluorometer, to measure the inhibitory activity (FIG. 10). […] When the fluorescence intensity observed in the case without addition of a test compound was taken as 100, the fluorescence intensity measured 1 minute after the addition of the test compound was about 20% in the case of selenoneine.
# T1 sequence (P00784 134-345): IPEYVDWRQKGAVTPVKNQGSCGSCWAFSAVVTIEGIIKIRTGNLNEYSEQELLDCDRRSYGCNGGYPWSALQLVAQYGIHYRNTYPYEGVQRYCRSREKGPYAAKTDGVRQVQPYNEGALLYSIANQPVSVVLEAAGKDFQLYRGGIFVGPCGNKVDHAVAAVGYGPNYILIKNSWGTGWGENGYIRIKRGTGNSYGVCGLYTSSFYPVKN
SMILES,IC50 (papain),"IC50 (M^pro of SARS-COV2 [1]; 37° C., pH 7.4, 10 μM Ac-Abu-Tle-Leu-Gln-MCA, read-out: IC50 value calculated from the regression curve)","changes in the fluorescence intensity compared with control without inhibitory compound (M^pro of SARS-COV2 [1]; 5 μM compound, FIG. 8)",fluorescence intensity (case without test compound taken as 100) (M^pro of SARS-COV2 [2])
"O=c1c2ccccc2[se]n1-c1ccccc1 [Ebselen, ebselen, reference compound]",5000 nM,,,
"C[N+](C)(C)C(Cc1cnc([SeH])[nH]1)C(=O)O [Selenoneine, 2-selenyl-Nα,Nα,Nα-trimethyl-L-histidine]",250 nM,540 nM,lower than that in the case where no inhibitory compound was added,about 20%

# Source: patent publication US20250352517A1, “THERAPEUTIC OR PROPHYLACTIC AGENT FOR COVID19 WHICH COMPRISES SELENONEINE” (National University Corporation Chiba University, priority 2021, published 2025)
